Measured values as given in US5102894A, “Substituted piperidine compounds and their use” (Novo Nordisk A/S, priority 1989, dated 1992).
Counter-ions that a name gives are not always drawn.

Test system: voltage operated calcium channels (VOC)
Assay: inhibition of depolarization-induced 45Ca uptake into brain synaptosomes (crude P2 fraction)
Type: biochemical, male Wistar rat
Settings: rat cerebral cortex synaptosomes (P2), KCl-depolarized samples, 15 s uptake at 37° C., pH 7.4; triplicate; from dose response curves
Description: The pharmacological properties of the compounds of the invention can be illustrated by determining their capability to inhibit calcium uptake into brain synaptosomes.
Depolarization of neuronal membranes leads to an opening of socalled `voltage operated calcium channels` (VOC) in the membranes which allows a massive influx of calcium from the extracellular space. A crude synaptosomal preparation (socalled P2 fraction) contains small vesicles surrounded by neuronal membrane and it is possible in such a preparation to study a depolarization-induced opening of VOC.
A male Wistar rat is decapitated and the cerebral cortex removed and homogenized in 10 ml of ice-cold 0.32 M sucrose using a glass homogenizer with a teflon pestle. All subsequent steps for isolation of synaptosomes are done at 0°-4° C. The homogenate is centrifuged at 1000×g for 10 min and the resulting supernatant is re-centrifuged at 18000×g for 20 min. This pellet (P2) is resuspended in 0.32 M sucrose (5 ml per g of original tissue) with a teflon pestle.
The tubes are pre- incubated for 30 min on ice and then for 6 min at 37° C. in a water bath.
The incubation is continued for 15 s.
The amount of radioactivity on the filter disc is determined by liquid scintillation spectrometry.
Test substances are dissolved in 10 ml of 48% ethanol at a concentration of 0.44 mg/ml. Dilutions are made in 48% ethanol to give final concentrations of 0.1, 0.3, 1, 3 and 10 μg/ml. Experiments are performed in triplicate. Controls for depolarized and nondepolarized samples are included in the assay and test substances are only tested in depolarized samples.
The IC50 value is estimated from dose response curves.

Compound	IC50 (concentration of test substance which inhibits 50% of stimulated uptake of 45Ca) [mg/L]
CCCCN1CC[C@@H](c2cccs2)[C@H](COc2cccc(OC)c2)C1 (relative stereo) [Compound 25, (+-) trans 1-butyl-4-(2-thienyl)-3-(3-methoxyphenoxymethyl)piperidine, HCl]	9.1
CCCCCN1CC[C@@H](c2ccsc2)[C@H](COc2ccc(OC(F)(F)F)cc2)C1 (relative stereo) [Compound 43, (+-) trans 3-(4-trifluoromethoxyphenoxymethyl)-1-pentyl-4-(3-thienyl)piperidine, HCl]	10
CCCCN1CC[C@@H](c2ccc(C)o2)[C@H](COc2cccc(C(F)(F)F)c2)C1 (relative stereo) [Compound 12, HCl]	18
CCCCN1CC[C@@H](c2cccs2)[C@H](COc2ccccc2OC(C)C)C1 (relative stereo) [Compound 27, (+-) trans 1-butyl-3-(2-isopropoxyphenoxymethyl)-4-(2-thienyl)piperidine, oxalate]	13
CCCCCN1CC[C@@H](c2cccs2)[C@H](COc2ccccc2C#N)C1 (relative stereo) [Compound 15, (+-) trans 3-(2-cyanophenoxymethyl)-1-pentyl-4-(2-thienyl)piperidine, HCl]	7.2
CCCCCN1CC[C@@H](c2ccsc2)[C@H](COc2ccc3c(c2)OCO3)C1 (relative stereo) [Compound 30, (+-) trans 3-(3,4-methylenedioxyphenoxymethyl)-1-pentyl-4-(3-thienyl)piperidine, HCl]	4.9
CCCCCN1CC[C@@H](c2cccs2)[C@H](COc2cccc(CN)c2)C1 (relative stereo) [Compound 28, (+-) trans 3-(3-aminomethylphenoxymethyl)-1-pentyl-4-(2-thienyl)piperidine,HCl]	30

Results, then the molecule that gave them:

IC50 (concentration of test substance which inhibits 50% of stimulated uptake of 45Ca) [mg/L]	Compound
3.6	CCCCCN1CC[C@@H](c2ccsc2)[C@H](COc2ccc(Cl)cc2)C1 (relative stereo) [Compound 37, (+-) trans 3-(4-chlorophenoxymethyl)-1-pentyl-4-(3-thienyl)piperidine, HCl]
4.7	CCCCCN1CC[C@@H](c2ccsc2)[C@H](COc2cccc(C(F)(F)F)c2)C1 (relative stereo) [Compound 31, (+-) trans 1-pentyl-4-(3-thienyl)-3-(3-trifluoromethylphenoxymethyl)piperidine, oxalate]
2.8	FC(F)(F)c1cccc(OC[C@@H]2CNCC[C@H]2c2ccsc2)c1 (relative stereo) [Compound 44, (+-) trans 4-(thienyl)-3-(3-trifluoromethylphenoxymethyl)piperidine, HCl]
2.7	CCCCCN1CC[C@@H](c2ccsc2)[C@H](COc2ccc(C#N)cc2)C1 (relative stereo) [Compound 39, (+-) trans 3-(4-cyanophenoxymethyl)-1-pentyl-4-(3-thienyl)piperidine, HCl]
5.8	CCC(C)CN1CC[C@@H](c2ccsc2)[C@H](COc2cccc(C(F)(F)F)c2)C1 (relative stereo) [Compound 47, (+-) trans(2-methylbutyl)-4-(3-thienyl)-3-(3-trifluoromethylphenoxymethyl)piperidine, HCl]

Test system: peripheral calcium uptake, e.g. in blood vessels and the heart
Assay: not given
Settings: cited from earlier work

Compound	activity against peripheral calcium uptake
COC(=O)C1=C(C)NC(C)=C(C(=O)OC)C1c1ccccc1[N+](=O)[O-] [Nifedipine]	have activity
COc1ccc([C@@H]2Sc3ccccc3N(CCN(C)C)C(=O)[C@@H]2OC(C)=O)cc1 [Diltiazem]	have activity
COc1ccc(CCN(C)CCCC(C#N)(c2ccc(OC)c(OC)c2)C(C)C)cc1OC (stereo not drawn) [Verapamil]	have activity
